US8685928B2, “Antagonists of MUC1” (Dana-Farber Cancer Institute, Inc., priority 2010, dated 2014)
Converted amounts (≈) assume the structure as drawn. “Also recorded” adds a separate entry of the source. Positions of bridges follow the written chain, without caps; N, C: chain ends. Non-standard residues stand in square brackets, D forms with d. Residues, ends and D or L forms follow the SMILES beside them.

Columns and labels:
[1] = target: nicotinic acetylcholine α1 (bungarotoxin) receptor (Homo sapiens, UniProt P02708+P07510+Q07001); assay: biochemical
Chain of nicotinic acetylcholine α1 (bungarotoxin) receptor (P07510 23-517): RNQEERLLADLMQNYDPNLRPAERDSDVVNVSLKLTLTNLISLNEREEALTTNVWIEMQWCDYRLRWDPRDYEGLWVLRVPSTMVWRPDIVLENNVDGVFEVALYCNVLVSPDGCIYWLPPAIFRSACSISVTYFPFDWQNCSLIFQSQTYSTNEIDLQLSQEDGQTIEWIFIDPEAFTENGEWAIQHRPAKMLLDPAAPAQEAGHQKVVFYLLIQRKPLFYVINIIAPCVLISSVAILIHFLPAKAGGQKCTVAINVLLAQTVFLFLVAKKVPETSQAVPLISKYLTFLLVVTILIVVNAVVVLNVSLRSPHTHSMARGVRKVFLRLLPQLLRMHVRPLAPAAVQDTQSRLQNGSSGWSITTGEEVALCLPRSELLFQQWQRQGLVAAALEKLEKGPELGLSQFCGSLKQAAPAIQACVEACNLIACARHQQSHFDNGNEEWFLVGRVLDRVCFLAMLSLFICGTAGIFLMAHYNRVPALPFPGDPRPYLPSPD
Chain of nicotinic acetylcholine α1 (bungarotoxin) receptor (P02708 21-457): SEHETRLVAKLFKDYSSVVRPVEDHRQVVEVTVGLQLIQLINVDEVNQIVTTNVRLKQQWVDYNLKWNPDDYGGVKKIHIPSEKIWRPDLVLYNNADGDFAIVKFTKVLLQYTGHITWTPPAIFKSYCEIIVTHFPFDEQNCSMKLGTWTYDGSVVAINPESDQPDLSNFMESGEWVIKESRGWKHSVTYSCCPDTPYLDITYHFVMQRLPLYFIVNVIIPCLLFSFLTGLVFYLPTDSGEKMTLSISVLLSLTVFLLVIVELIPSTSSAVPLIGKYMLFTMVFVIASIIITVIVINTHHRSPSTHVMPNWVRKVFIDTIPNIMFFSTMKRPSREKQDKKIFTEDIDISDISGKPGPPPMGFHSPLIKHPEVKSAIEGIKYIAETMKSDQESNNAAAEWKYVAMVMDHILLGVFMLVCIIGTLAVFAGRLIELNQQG
Chain of nicotinic acetylcholine α1 (bungarotoxin) receptor (Q07001 22-517): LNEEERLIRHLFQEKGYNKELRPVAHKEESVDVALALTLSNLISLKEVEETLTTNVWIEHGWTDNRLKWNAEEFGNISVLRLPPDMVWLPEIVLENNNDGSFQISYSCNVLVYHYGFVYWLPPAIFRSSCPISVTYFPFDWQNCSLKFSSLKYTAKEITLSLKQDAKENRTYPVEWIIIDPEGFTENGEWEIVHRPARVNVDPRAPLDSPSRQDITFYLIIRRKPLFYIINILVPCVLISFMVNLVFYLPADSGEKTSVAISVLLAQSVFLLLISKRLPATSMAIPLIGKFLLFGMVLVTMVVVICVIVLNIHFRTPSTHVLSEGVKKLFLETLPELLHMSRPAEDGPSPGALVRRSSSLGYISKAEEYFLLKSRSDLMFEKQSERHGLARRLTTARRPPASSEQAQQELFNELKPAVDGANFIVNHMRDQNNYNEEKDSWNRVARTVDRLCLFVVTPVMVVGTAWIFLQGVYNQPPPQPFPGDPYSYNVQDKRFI
Chain of nicotinic acetylcholine α1 (bungarotoxin) receptor (P11230 24-501, further chain): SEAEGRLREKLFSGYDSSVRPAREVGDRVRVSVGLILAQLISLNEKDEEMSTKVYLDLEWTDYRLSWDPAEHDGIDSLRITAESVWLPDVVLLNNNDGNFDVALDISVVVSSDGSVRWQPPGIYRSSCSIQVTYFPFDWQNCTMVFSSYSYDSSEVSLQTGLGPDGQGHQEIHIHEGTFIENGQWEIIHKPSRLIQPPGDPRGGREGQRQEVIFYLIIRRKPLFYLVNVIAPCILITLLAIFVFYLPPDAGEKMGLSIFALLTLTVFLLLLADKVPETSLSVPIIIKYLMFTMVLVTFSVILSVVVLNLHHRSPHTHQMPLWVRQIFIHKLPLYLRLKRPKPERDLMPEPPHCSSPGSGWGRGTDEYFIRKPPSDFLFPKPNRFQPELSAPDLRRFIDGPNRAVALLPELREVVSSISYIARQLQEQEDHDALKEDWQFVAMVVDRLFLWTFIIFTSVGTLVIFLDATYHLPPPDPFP

[2] = target: adrenergic α1A receptor (Homo sapiens, UniProt P35348); assay: biochemical
Chain of adrenergic α1A receptor (P35348 whole entry): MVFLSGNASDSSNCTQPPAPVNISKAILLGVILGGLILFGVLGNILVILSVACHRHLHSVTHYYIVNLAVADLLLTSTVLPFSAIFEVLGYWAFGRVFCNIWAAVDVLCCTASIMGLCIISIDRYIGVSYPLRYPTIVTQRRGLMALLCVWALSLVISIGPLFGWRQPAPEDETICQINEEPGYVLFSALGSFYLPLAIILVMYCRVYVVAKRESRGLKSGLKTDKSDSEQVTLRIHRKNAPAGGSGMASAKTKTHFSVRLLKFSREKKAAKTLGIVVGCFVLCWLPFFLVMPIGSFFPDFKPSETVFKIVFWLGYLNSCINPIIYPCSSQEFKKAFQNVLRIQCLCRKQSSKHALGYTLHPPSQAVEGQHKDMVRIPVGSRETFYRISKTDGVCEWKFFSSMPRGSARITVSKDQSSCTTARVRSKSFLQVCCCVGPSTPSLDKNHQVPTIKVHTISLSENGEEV

[3] = test system: H1975 Lung cancer cells; assay: Inhibition of cell proliferation, trypan blue exclusion (Table 2); assay type: cell-based, human; settings: 5 μM peptide every day, 6-day treatment
Description: (§1) Cells (ZR-75-1 breast carcinoma or H-1975 non-small cell lung carcinoma) were plated separately in 24-well plates for 24 hours prior to treatment with different peptides. The cells were then treated with 5 μM (final concentration) of different peptides every day for 4-6 days. On the day of termination, cells were washed two times with PBS and trypsinized with 0.3 ml of Trypsin/EDTA. Cell growth media was used to stop the trypsin reaction. Following washing, the cells were centrifuged and the cell pellets were re-suspended in PBS for counting in hemacytometer.
(§2) The trypan blue dye exclusion method was used to determine the number of viable cells present in a cell suspension. Cell suspension was mixed as 1:1 with the trypan blue dye and then visually examined in a hemacytometer. A viable cell will have a clear cytoplasm whereas a non-viable/dead cell will be stained with trypan blue dye. By doing this trypan blue exclusion method, viable cell numbers were counted and percent inhibition of proliferation was then calculated comparing with untreated controls.

[4] = Dog pivotal repeat-dose toxicity study; assay type: in vivo; settings: for Safety margin: human starting dose lower than NOAEL: 3 mg/m^2 human starting dose
Description: The proposed clinical trial will be a multicenter, open-label, dose-escalation, safety, pharmacodynamic and pharmacokinetic study in patients with advanced solid tumors administered GO-203-2c IV over 60 min once per day for 21 consecutive days; this dosing regimen will be repeated every 28 days. Since the majority of the treatment-related findings in rats and dogs were localized at the infusion site or were secondary to the infusion site reactions, the no-observed-adverse-effect-level (NOAEL) for systemic toxicity in the pivotal repeat-dose rat toxicity study was determined to be 5 mg/kg/day. The highest non-severely toxic dose (HNSTD), which was also considered the NOAEL, was established as 1 mg/kg/day in the dog pivotal repeat-dose toxicity study. For vascular injury at the injection site, the NOAEL in rats is […]. This concentration rate is 25-fold greater than the estimated concentration rate for humans (0.83 μg/mL/min) at the recommended starting dose of 3 mg/m2/day (assumes a body mass of 1.65 m2).

[5] = target: dopamine D1 receptor (Homo sapiens, UniProt P21728); assay: biochemical
Chain of dopamine D1 receptor (P21728 whole entry, species assumed): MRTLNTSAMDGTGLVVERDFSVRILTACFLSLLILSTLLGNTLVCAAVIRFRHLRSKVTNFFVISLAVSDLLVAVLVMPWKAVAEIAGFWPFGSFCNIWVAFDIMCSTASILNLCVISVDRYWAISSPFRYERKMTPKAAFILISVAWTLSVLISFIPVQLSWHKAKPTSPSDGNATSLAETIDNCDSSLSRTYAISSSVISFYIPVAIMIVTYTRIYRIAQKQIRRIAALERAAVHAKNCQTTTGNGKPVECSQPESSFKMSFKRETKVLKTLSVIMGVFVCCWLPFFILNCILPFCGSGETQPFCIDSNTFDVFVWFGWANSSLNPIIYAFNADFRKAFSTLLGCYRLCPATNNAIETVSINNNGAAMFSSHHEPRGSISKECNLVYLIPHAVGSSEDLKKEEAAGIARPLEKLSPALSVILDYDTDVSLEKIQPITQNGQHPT

[6] = target: adrenergic α1B receptor (Homo sapiens, UniProt P35368); assay: biochemical
Chain of adrenergic α1B receptor (P35368 whole entry): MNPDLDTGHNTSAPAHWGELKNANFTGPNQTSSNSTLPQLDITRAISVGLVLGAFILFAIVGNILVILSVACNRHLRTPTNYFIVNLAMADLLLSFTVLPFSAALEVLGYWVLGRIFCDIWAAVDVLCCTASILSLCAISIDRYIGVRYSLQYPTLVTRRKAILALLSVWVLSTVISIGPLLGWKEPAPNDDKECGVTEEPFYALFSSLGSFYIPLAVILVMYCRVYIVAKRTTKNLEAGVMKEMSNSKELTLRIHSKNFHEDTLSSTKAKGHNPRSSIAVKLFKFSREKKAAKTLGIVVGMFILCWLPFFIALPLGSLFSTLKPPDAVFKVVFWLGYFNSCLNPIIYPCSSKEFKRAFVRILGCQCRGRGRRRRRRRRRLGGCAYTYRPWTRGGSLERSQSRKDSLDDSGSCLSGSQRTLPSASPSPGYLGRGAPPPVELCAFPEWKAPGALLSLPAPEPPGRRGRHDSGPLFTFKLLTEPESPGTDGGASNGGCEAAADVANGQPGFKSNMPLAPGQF

[7] = target: norepinephrine transporter (Homo sapiens, UniProt P23975); assay: biochemical
Chain of norepinephrine transporter (P23975 whole entry, species assumed): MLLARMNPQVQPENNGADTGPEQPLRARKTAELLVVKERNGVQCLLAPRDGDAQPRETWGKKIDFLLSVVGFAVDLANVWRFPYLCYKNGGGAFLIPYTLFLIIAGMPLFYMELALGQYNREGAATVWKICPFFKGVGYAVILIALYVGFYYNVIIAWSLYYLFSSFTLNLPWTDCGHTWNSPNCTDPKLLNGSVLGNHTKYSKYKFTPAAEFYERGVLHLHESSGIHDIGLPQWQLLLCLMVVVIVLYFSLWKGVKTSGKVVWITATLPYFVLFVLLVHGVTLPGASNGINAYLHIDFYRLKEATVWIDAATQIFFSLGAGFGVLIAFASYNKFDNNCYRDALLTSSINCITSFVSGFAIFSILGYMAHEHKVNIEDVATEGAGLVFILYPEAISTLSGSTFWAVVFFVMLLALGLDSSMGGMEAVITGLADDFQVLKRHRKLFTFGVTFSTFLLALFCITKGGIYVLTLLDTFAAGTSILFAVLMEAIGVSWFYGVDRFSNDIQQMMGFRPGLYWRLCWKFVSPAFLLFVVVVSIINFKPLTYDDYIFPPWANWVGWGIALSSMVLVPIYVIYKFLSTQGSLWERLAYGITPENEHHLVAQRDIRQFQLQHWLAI

[8] = test system: MUC1-CD; assay: MUC1-CD oligomerization in transfected HEK 293T cells, species comparison; assay type: cell-based; settings: MUC1-CD from rat, dog and human compared
Description: Studies were also conducted to confirm pharmacological relevance of the rodent and nonrodent species chosen for toxicology studies, namely the rat and dog, respectively. MUC1-CD amino acid sequence was determined to be greater than 80% identical between rat, dog and human proteins, and similar expression of MUC1 was found in stomach, intestinal and lung epithelium from the different species using immunohistochemical staining. […] The results of these studies indicate that potential MUC1-CD targets in the rat, dog and human are similar with respect to sequence, tissue expression and responsiveness to inhibition of oligomerization by GO-203-2c, and confirm pharmacological relevance of the species chosen for nonclinical safety assessment of GO-203-2c.

[9] = test system: A549 non-small cell lung carcinoma xenograft; assay: A549 non-small cell lung carcinoma xenograft model; assay type: in vivo, mouse; settings: for Tumor response: 7.5 mg/kg
Description: Male BALB/c nu/nu mice (6-7 weeks old; Charles River Laboratories, Wilmington, Mass.) were injected with 5 million A549 or PC3 cells in the right thigh. When tumors reached a predetermined size (approximately 80-100 mm^3; 10-16 days after tumor cell implantation), treatment was initiated as follows: Group 1, saline control (daily×21 days); Group 2, GO-203-2c (7.5 mg/kg, 5 days on/2 days off×3 cycles); Group 3, GO-203-2c (7.5 mg/kg, daily×21 days). In the A549 study, Group 3 animals that still had palpable/measurable tumors at the end of the 21-day treatment period were administered an additional 9 days of GO-203-2c treatment (Group 3′), with a one week interim period between treatments.

[10] = test system: ZR-75-1 Breast cancer cells; assay: Inhibition of cell proliferation, trypan blue exclusion (Table 1); assay type: cell-based, human; settings: 5 μM peptide every day, 6-day treatment
Description: as §1, §2

[11] = Solubility; assay type: physicochemical; settings: for solubility: as peptide
[12] = test system: ZR-75-1 human breast carcinoma xenograft; assay: ZR-75-1 xenograft model, 5 days on/2 days off IV dosing schedule; assay type: in vivo, mouse; settings: for Mice completely cured / Tumor response: 7.5 mg/kg IV
Description: In a second study using this ZR-75-1 cell xenograft model, a 5 days on/2 days off IV dosing schedule was used, and groups of 8 mice received either one, two or three cycles utilizing this schedule. […] Tumor growth was cytostatic for 4-5 days after stopping the drug treatment, but tumors subsequently started re-growing similarly to control. […] Tumors in the remaining 5 of 8 mice in this group started re-growing at 8+ days after cessation of treatment. These animals were administered an additional 2 cycles of treatment, starting on Day 29.

Q: For CC(=O)N[C@H](CCCNC(=N)N)C(=O)N[C@H](CCCNC(=N)N)C(=O)N[C@H](CCCNC(=N)N)C(=O)N[C@H](CCCNC(=N)N)C(=O)N[C@H](CCCNC(=N)N)C(=O)N[C@H](CCCNC(=N)N)C(=O)N[C@H](CCCNC(=N)N)C(=O)N[C@H](CCCNC(=N)N)C(=O)N[C@H](CCCNC(=N)N)C(=O)N[C@@H]1CSSC[C@H](C(=O)N[C@H](CCCNC(=N)N)C(=O)N[C@H](CCCNC(=N)N)C(=O)N[C@H](CCCCN)C(=O)N[C@H](CC(N)=O)C(N)=O)NC(=O)[C@@H](CCC(N)=O)NC1=O [GO-203-2c, Ac-(D)Arg-(D)Arg-(D)Arg-(D)Arg-(D)Arg-(D)Arg-(D)Arg-(D)Arg-(D)Arg-(D)Cys-(D)Gln-(D)Cys-(D)Arg-(D)Arg-(D)Lys-(D)Asn-NH2 disulfide] (Ac-[dR][dR][dR][dR][dR][dR][dR][dR][dR][dC][dQ][dC][dR][dR][dK][dN]-NH2; disulfide 10-12), which IC50 [1] is on record?
A: The IC50 was 3 to 8 µM.

Q: What about the IC50 [2] of the same compound?
A: The IC50 was 3 to 8 µM.

Q: What about the “Avg (viable cell number of Groups 1-3)” value [3] of the same compound?
A: The value was 7.2.

Q: What about the “% inhibition” value ([3]; vs untreated control) of the same compound?
A: The value was 60.7%.

Q: And the “Group-1 (viable cell number, individual well)” value ([3]; well having 10,000 cells)?
A: Its value is 8.47.

Q: What about the “Group-2 (viable cell number, individual well)” value ([3]; well having 10,000 cells) of the same compound?
A: The value was 7.13.

Q: And the “Group-3 (viable cell number, individual well)” value ([3]; well having 10,000 cells)?
A: The value was 6.02.

Q: And the “HNSTD or NOAEL” value ([4]; body surface area basis)?
A: Its value is 20 mg/m2/day.

Q: And the NOAEL ([4]; in vivo, repeat-dose IV, read-out: Highest non-severely toxic dose (HNSTD), also considered the NOAEL)?
A: The NOAEL was 1 mg/kg/day.

Q: What about the “Safety margin: human starting dose lower than NOAEL” value ([4]; mg/kg basis) of the same compound?
A: Its value is 12 fold.

Q: What about the “Safety margin: human starting dose lower than NOAEL” value ([4]; mg/m^2 basis) of the same compound?
A: Its value is 6.7 fold.

Q: What about the IC50 [5] of the same compound?
A: The IC50 was 10.5 µM.

Q: What about the IC50 [6] of the same compound?
A: The IC50 was 3 to 8 µM.

Q: And the IC50 [7]?
A: The IC50 was 3 to 8 µM.

Q: And the “Inhibition of MUC1-CD oligomerization” value [8]?
A: The value was “in an equivalent manner”.

Q: And the Tumor response ([9]; 5 days on/2 days off x 3 cycles)?
A: Its Tumor response is “tumor growth arrest during the treatment period, but the tumors resumed growth; also recorded: started growing steadily after day 9”.

Q: And the Tumor response ([9]; daily x 21 days)?
A: The Tumor response was “slowed down tumor growth substantially”.

Q: And the “Tumor response after re-dosing” value ([9]; additional 9 days of treatment from day 29)?
A: The value was “somewhat stabilized with a very slow growth”.

Q: What about the “Average tumor size on day 29” value ([9]; daily x 21 days group after 7 days of rest, at start of re-dosing) of the same compound?
A: The value was roughly 900 mm^3.

Q: What about the “Avg (viable cell number of Groups 1-3)” value [10] of the same compound?
A: The value was 9.83.

Q: What about the “% inhibition” value ([10]; vs untreated control) of the same compound?
A: Its value is 58.69%.

Q: What about the “Group-1 (viable cell number, individual well)” value ([10]; well having 10,000 cells) of the same compound?
A: Its value is 9.18.

Q: And the “Group-2 (viable cell number, individual well)” value ([10]; well having 10,000 cells)?
A: The value was 11.22.

Q: And the “Group-3 (viable cell number, individual well)” value ([10]; well having 10,000 cells)?
A: The value was 8.55.

Q: What about the solubility ([11]; 10 mM acetate pH 3.0-4.0, 0.9% NaCl) of the same compound?
A: Its solubility is greater than 50 mg/mL.

Q: What about the solubility ([11]; 10 mM acetate pH 4.0) of the same compound?
A: Its solubility is 7 to 37 mg/mL (≈ 2.98 to 15.7 mM).

Q: And the solubility ([11]; 1% (v/v) aqueous acetic acid)?
A: The solubility was greater than 110 mg/mL.

Q: And the solubility ([11]; 10% (v/v) aqueous acetonitrile)?
A: The solubility was greater than 110 mg/mL.

Q: What about the “Time without gel formation” value ([11]; solutions in water, 1% aqueous acetic acid or 10% aqueous acetonitrile) of the same compound?
A: Its value is “at least 5 days”.

Q: And the solubility ([11]; water)?
A: The solubility was greater than 240 mg/mL.

Q: What about the Mice completely cured ([12]; 2 dosing cycles) of the same compound?
A: Its Mice completely cured is “Two of 8”.

Q: And the Tumor response ([12]; 2 dosing cycles (5 days on/2 days off))?
A: The Tumor response was “Tumor regression”.

Q: And the Mice completely cured ([12]; 3 dosing cycles)?
A: The Mice completely cured was “Three of 8”.

Q: What about the Tumor response ([12]; 3 dosing cycles (5 days on/2 days off)) of the same compound?
A: The Tumor response was “tumor growth arrest during the treatment period, but the tumors resumed growth; also recorded: substantial regression of tumors”.

Q: What about the Tumor response ([12]; one dosing cycle (5 days on/2 days off)) of the same compound?
A: Its Tumor response is “partial tumor regression”.

Q: And the “Tumor response after re-dosing” value ([12]; additional 2 cycles from Day 29 in 5 mice with re-growing tumors)?
A: Its value is “somewhat stabilized with very slow growth”.
